Data from PMC12519282, “Reduction of Negative Charge in Mercaptoacetyl-Based Chelators Influences the Biodistribution of Prostate-Specific Membrane Antigen-Targeting Pseudopeptides Labeled with Technetium-99m” (ACS Pharmacology & Translational Science, 2025).
Like-named read-outs stand apart in the source and are kept apart here. Marks after values point to notes of the source that are not given here.

What was measured:
physchem = type: physicochemical; settings: pH 7.4
Protocol: To evaluate the label’s stability, 10 μL (0.25 μg) of radiolabeled conjugates was incubated with 300× molar excess of cysteine or with PBS for 1 h at room temperature. The test was run in triplicate. The release of free technetium-99m was controlled by using iTLC and radio-HPLC analysis. The stability in serum was analyzed by mixing the radioconjugates (0.25 μg in 10 μL) with murine serum or PBS (40 μL) as a control. The samples were incubated for 1 h at 37 °C and analyzed by iTLC. The experiment was performed in triplicate. The octanol–water distribution coefficient (Log D) was determined experimentally by the addition of 100 pmol of the radiolabeled tracer to an Eppendorf tube containing PBS (500 μL) and n-octanol (500 μL), pH ∼ 7.4. The solution was vortexed and centrifuged, and aliquots (50 μL) from each phase were collected and measured using a gamma counter. The experiment was performed in triplicate.

PSMA [1] = target: T1, PSMA (Homo sapiens, UniProt Q04609); assay: binding kinetics in real time on living PC3-pip cells (LigandTracer Yellow); settings: 5 nM tracer, 1:2 model (1:1 for BQ0413)
T1 construct: expressed in transfected cells; host or cells: PC3-pip (PSMA-transfected PC-3 prostate carcinoma cells), from Prof; Martin G. Pomper, Johns Hopkins University
Protocol: The binding kinetics of technetium-99m-labeled BQ0413, BQ0500, and BQ0501 were determined in PC3-pip cells in real-time using LigandTracer Yellow (Ridgeview Instruments AB, Uppsala, Sweden). The activity binding was recorded with 5 nM radiolabeled tracers for 150 min. After the binding kinetics were measured, the medium containing the labeled tracer was replaced with fresh medium, and the dissociation was monitored over 7 h. The association rate (k a) and the dissociation rate (k d) were computed using a 1:2 kinetic binding model in TraceDrawer software (Ridgeview Instruments AB, Uppsala, Sweden), and the equilibrium dissociation constant K D was calculated.

PC3-pip xenografts [2] = assay: biodistribution and tumor targeting in PC3-pip tumor-bearing mice; type: in vivo; settings: PC3-pip tumor-bearing mice, 5 nmol/mouse iv
From the text: The injected masses for the in vivo experiments were chosen based on the findings for [^99mTc]-Tc-BQ0413: to study the general biodistribution of radiolabeled tracers in normal mice (NMRI), 40 pmol of tracer was used to avoid blocking of PSMA-mediated uptake in kidneys and salivary glands, to study tumor targeting, 5 nmol of tracer was used to decrease uptake in PSMA-expressing organs.
PSMA-expressing PCa xenografts were implanted in BALB/c nu/nu mice by subcutaneous injection of the PC3-pip cell suspension in PBS (10^7 cells/animal in 100 μL). The average animal weight in the experiment was 18 ± 2 g. The average tumor weight was 0.4 ± 0.2 g. For in vivo specificity control, 10^7 cells/animal PSMA-negative PC-3 cells were implanted. The average animal weight was 18 ± 1 g. The average tumor weight was 0.1 ± 0.1 g. Four mice per data point were used in the in vivo experiments.
For tumor-bearing mice, each mouse was intravenously injected with 5 nmol of [^99mTc]-Tc-BQ0413, [^99mTc]-Tc-BQ0500, and [^99mTc]-Tc-BQ0501 (60 kBq; the mass of the injected compound was adjusted with an unlabeled tracer). The mice were euthanized after lethal intraperitoneal injection of ketamine/xylazine, followed by exsanguination 1 and 3 h pi, similarly to the procedure described above.

PSMA [3] = target: T1, PSMA; settings: cited from earlier work
PC3-pip xenografts [4] = settings: in vivo; cited from earlier work

T1 sequence (Q04609 whole entry): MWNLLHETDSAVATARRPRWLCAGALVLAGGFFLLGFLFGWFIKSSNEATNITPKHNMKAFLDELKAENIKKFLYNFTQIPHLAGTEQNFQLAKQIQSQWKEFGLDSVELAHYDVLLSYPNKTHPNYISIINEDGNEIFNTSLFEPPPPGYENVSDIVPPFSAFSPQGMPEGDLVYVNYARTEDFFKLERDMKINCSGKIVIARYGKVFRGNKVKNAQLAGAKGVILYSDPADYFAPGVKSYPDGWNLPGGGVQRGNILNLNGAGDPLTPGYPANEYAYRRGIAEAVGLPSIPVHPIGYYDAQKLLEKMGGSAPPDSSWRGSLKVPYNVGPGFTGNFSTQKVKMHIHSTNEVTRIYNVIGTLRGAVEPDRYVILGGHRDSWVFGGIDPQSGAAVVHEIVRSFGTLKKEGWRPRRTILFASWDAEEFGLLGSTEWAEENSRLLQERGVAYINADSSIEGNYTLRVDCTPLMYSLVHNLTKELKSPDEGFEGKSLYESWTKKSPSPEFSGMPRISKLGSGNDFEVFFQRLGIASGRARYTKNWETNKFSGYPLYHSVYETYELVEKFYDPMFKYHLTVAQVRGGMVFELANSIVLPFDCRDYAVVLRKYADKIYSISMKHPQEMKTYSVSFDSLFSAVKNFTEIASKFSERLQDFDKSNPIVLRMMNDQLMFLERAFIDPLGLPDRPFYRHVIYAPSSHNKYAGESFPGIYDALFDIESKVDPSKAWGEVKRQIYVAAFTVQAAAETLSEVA

Structure (SMILES): CC(=O)NC(CCCCNC(=O)CNC(=O)C(CCC(=O)O)NC(=O)C(CCC(=O)O)NC(=O)C(CCC(=O)O)NC(=O)CS)C(=O)NCCCCCCCC(=O)NC(Cc1ccc(O)cc1)C(=O)NC(Cc1ccc2ccccc2c1)C(=O)NCCCCC(NC(=O)NC(CCC(=O)O)C(=O)O)C(=O)O (stereo not shown) [[^99mTc]Tc-BQ0413, metal not drawn, reference compound]
- Log D (octanol–water distribution coefficient) (physchem): −2.5 ± 0.1
- B max1 (binding maximum) (PSMA [1]): 947 CPS
- Kd (PSMA [1]; read-out: K D1): 0.089 nM
- activity in carcass (PC3-pip xenografts [2]; 1 h pi): 8 ± 2 ^b %IA/sample
- activity in intestines with content (PC3-pip xenografts [2]; 1 h pi): 1.7 ± 0.4 %IA/sample
- activity uptake in blood (PC3-pip xenografts [2]; 1 h pi): 1.0 ± 0.3 ^b %IA/g
- activity uptake in bone (PC3-pip xenografts [2]; 1 h pi): 0.9 ± 0.3 ^b %IA/g
- activity uptake in kidney (PC3-pip xenografts [2]; 1 h pi): 23 ± 3 ^b %IA/g
- activity uptake in liver (PC3-pip xenografts [2]; 1 h pi): 1.3 ± 0.4 ^b %IA/g
- activity uptake in lung (PC3-pip xenografts [2]; 1 h pi): 1.2 ± 0.2 ^b %IA/g
- activity uptake in muscle (PC3-pip xenografts [2]; 1 h pi): 0.3 ± 0.1 ^b %IA/g
- activity uptake in pancreas (PC3-pip xenografts [2]; 1 h pi): 0.6 ± 0.1 ^b %IA/g
- activity uptake in salivary gland (PC3-pip xenografts [2]; 1 h pi): 1.4 ± 0.2 ^b %IA/g
- activity uptake in small intestines (PC3-pip xenografts [2]; 1 h pi): 0.5 ± 0.1^b %IA/g
- activity uptake in spleen (PC3-pip xenografts [2]; 1 h pi): 1.9 ± 0.8 %IA/g
- activity uptake in stomach (PC3-pip xenografts [2]; 1 h pi): 1.5 ± 0.4 %IA/g
- activity uptake in tumor (PC3-pip xenografts [2]; 1 h pi): 19 ± 4 %IA/g
- tumor-to-blood ratio (PC3-pip xenografts [2]; 1 h pi): 22 ± 12 ^b
- tumor-to-bone ratio (PC3-pip xenografts [2]; 1 h pi): 27 ± 17 ^b
- tumor-to-kidney ratio (PC3-pip xenografts [2]; 1 h pi): 0.9 ± 0.3 ^b
- tumor-to-liver ratio (PC3-pip xenografts [2]; 1 h pi): 17 ± 9 ^b
- tumor-to-lung ratio (PC3-pip xenografts [2]; 1 h pi): 16 ± 5 ^b
- tumor-to-muscle ratio (PC3-pip xenografts [2]; 1 h pi): 62 ± 25 ^b
- tumor-to-pancreas ratio (PC3-pip xenografts [2]; 1 h pi): 38 ± 5 ^b
- tumor-to-salivary gland ratio (PC3-pip xenografts [2]; 1 h pi): 14 ± 3 ^b
- tumor-to-small intestines ratio (PC3-pip xenografts [2]; 1 h pi): 41 ± 17 ^b
- tumor-to-spleen ratio (PC3-pip xenografts [2]; 1 h pi): 9 ± 3 ^b
- tumor-to-stomach ratio (PC3-pip xenografts [2]; 1 h pi): 13 ± 2 ^b
- activity in carcass (PC3-pip xenografts [2]; 3 h pi): 1.7 ± 0.3 %IA/sample
- activity in intestines with content (PC3-pip xenografts [2]; 3 h pi): 1.7 ± 0.2 %IA/sample
- activity uptake in blood (PC3-pip xenografts [2]; 3 h pi): 0.17 ± 0.04 %IA/g
- activity uptake in bone (PC3-pip xenografts [2]; 3 h pi): 0.2 ± 0.1 %IA/g
- activity uptake in kidney (PC3-pip xenografts [2]; 3 h pi): 9 ± 2 %IA/g
- activity uptake in liver (PC3-pip xenografts [2]; 3 h pi): 0.3 ± 0.1 %IA/g
- activity uptake in lung (PC3-pip xenografts [2]; 3 h pi): 0.3 ± 0.1 %IA/g
- activity uptake in muscle (PC3-pip xenografts [2]; 3 h pi): 0.06 ± 0.02 %IA/g
- activity uptake in pancreas (PC3-pip xenografts [2]; 3 h pi): 0.13 ± 0.02 %IA/g
- activity uptake in salivary gland (PC3-pip xenografts [2]; 3 h pi): 0.5 ± 0.1 %IA/g
- activity uptake in small intestines (PC3-pip xenografts [2]; 3 h pi): 0.2 ± 0.1 %IA/g
- activity uptake in spleen (PC3-pip xenografts [2]; 3 h pi): 0.9 ± 0.5 %IA/g
- activity uptake in stomach (PC3-pip xenografts [2]; 3 h pi): 0.6 ± 0.2 %IA/g
- activity uptake in tumor (PC3-pip xenografts [2]; 3 h pi): 17 ± 3 %IA/g
- tumor-to-blood ratio (PC3-pip xenografts [2]; 3 h pi): 94 ± 3
- tumor-to-bone ratio (PC3-pip xenografts [2]; 3 h pi): 114 ± 29
- tumor-to-kidney ratio (PC3-pip xenografts [2]; 3 h pi): 1.9 ± 0.3
- tumor-to-liver ratio (PC3-pip xenografts [2]; 3 h pi): 48 ± 5
- tumor-to-lung ratio (PC3-pip xenografts [2]; 3 h pi): 52 ± 8
- tumor-to-muscle ratio (PC3-pip xenografts [2]; 3 h pi): 284 ± 19
- tumor-to-pancreas ratio (PC3-pip xenografts [2]; 3 h pi): 135 ± 11
- tumor-to-salivary gland ratio (PC3-pip xenografts [2]; 3 h pi): 31 ± 3
- tumor-to-small intestines ratio (PC3-pip xenografts [2]; 3 h pi): 126 ± 57
- tumor-to-spleen ratio (PC3-pip xenografts [2]; 3 h pi): 16 ± 4
- tumor-to-stomach ratio (PC3-pip xenografts [2]; 3 h pi): 24 ± 2
- Kd (PSMA [3]; PC3-pip, ref 15 (inferred, reference cell empty)): 0.033 nM
- excretion pathway (PC3-pip xenografts [4]): renal
- tumor uptake (PC3-pip xenografts [4]): 33 ± 3%IA/g (3 h)
- tumor-to-blood ratio (PC3-pip xenografts [4]): 314 ± 73 (3 h)

Structure (SMILES): O=C(O)CCc1ccc(O)c(CN(CCN(CC(=O)O)Cc2cc(CCC(=O)NCCCCCC(=O)NCCCC[C@H](NC(=O)N[C@@H](CCC(=O)O)C(=O)O)C(=O)O)ccc2O)CC(=O)O)c1 [PSMA-11]
- Kd (PSMA [3]; nonlabeled PSMA-11, ref 29 (inferred, citation mark not shown)): 0.5 ± 0.2 nM
